# Where a name gives a salt, the structure may show the parent alone.
# What was measured:
# [1] = tested on: middle cerebral artery occlusion/reperfusion model; assay: Middle cerebral artery occlusion/reperfusion model, infarct volume; type: in vivo, C57BL/6J mice; conditions: mice, 90 minutes occlusion; 30 mg/kg via the caudate vein at 3, 24 and 48 hours after occlusion; brains taken 3 days after occlusion/reperfusion
# Procedure: A middle cerebral artery occlusion/reperfusion model was prepared by taking 8-week male C57BL/6J mice after 12 days convention rearing, and ligating the left and external common carotid arteries, then recanalizing them after the middle cerebral artery had been occluded for a period of 90 minutes. In this model, the compounds were administered at 3, 24, and 48 hours after occlusion as 30 mg/kg via the caudate vein. The animals were decapitated 3 days after the occlusion/reperfusion, the skulls were cut open from the cerebellar side and the brain was extracted. The extracted brains were fixed with Bouin's solution (pH 3.5-4.0). […] The infarct volumes were then calculated as shown below.
# Optical microscope: digital images were taken using an optical microscope (object lens×1) that was fitted with a camera (MCD-350, Olympus). […] Based on the images pasted into the page mounts, the infarct areas (S, mm^2), lateral (left) infarct areas (mm^2) and lateral (right) non-infarct areas (MR, mm^2) were measured using an image analysis system (Win ROOF v. 5.6, Mitani), and the non-infarct areas for the left-side infarcts (ML, mm^2) [lateral (left) infarct area (mm^2)−infarct area (mm^2)] were calculated.
# Using the equations below, the infarct volumes (SV, mm^3), non-infarct volumes for the left-side infarcts (MLV, mm^3), and the lateral (right) non-infarct volumes (MRV, mm^3) were calculated. […]
# [2] = tested on: rats with streptozotocin-induced diabetes; assay: Motor nerve conduction velocity (MNCV) in sciatic nerves of rats with streptozotocin-induced diabetes; type: in vivo, Slc:Wistar rats; conditions: 5 mL/kg of 10 mg/mL drug solution orally once per day for 4 weeks, compared to solvent administration control group
# Procedure: The preventative effect of the compounds on the prolongation of latency of the motor nerve conduction velocity (MNCV) were studied in the sciatic nerves of rats with streptozotocin-induced diabetes.
# The groups were structured as a non-diabetes control group, a diabetes control group, and a drug administration group. After 8 days of convention rearing, the 8-week male Slc:Wistar rats in the respective groups were given 2 mL/kg of pH 4.5, 0.75 mmol/L citrate buffer solution (non-diabetes control group), or 2 mL/kg of a solution prepared from […] of streptozotocin (chemical name: N-(methylnitrosocarbamoyl)-α-D-glucosamine; manufacturer: SIGMA) in 0.75 mmol/L citrate buffer solution (diabetes control group and drug administration group), single administration in the caudate vein. After 4 more weeks of rearing, the animals in the non-diabetes control group and the diabetes control group were given 5 mL/kg of water for injection, while the animals in the drug administration group were given 5 mL/kg of a drug solution prepared from 10 mg/mL of the drug in water for injection. Administration for all groups was orally once per day for 4 weeks. MNCV measurements were carried out 3 times for each group. […]
# [3] = tested on: activity of 200 ng/mL of NGF (NXF promoter-driven luciferase in PC12 cells); assay: Luciferase reporter assay (NXF promoter) in PC12 cells: potentiation of NGF activity; type: cell-based, rat; design: key: +: Showed relatively weak potentiation (potentiation only exhibited at 10 μM); ++: Showed potentiation; +++: Showed particularly strong potentiation (2-fold or greater potentiation of the activity of 200 ng/mL of NGF at 1 μM)
# Procedure: The forward primer 5′-[…]-3′ and the reverse primer 5′-[…]-3′ were prepared as the PCR primers according to the sequence information for the NXF gene genome sequence (Accession Nos. AB054577 and NC—000085), and the PCR method was used to isolate from approximately 5 kbp upstream from the translated region of the NXF gene promoter portion to the vicinity of the transcription start site. For this, 1 μg of mouse genomic DNA (Takara) was used as the template, and the 2-step PCR reaction was carried out for 35 cycles, the conditions for which were 95° C./1 m in the denaturing step, and 68° C./8 m in the annealing and extension steps, to obtain the PCR product. The NXF promoter fragment was inserted into the SmaI site of the pGL3 Basic vector (Promega) in the upstream of luciferase gene to prepare a reporter plasmid that would express the luciferase enzyme driven by the NXF promoter.
# PC12 cells (available from the ATCC) were cultured using RPMI medium (GIBCO-BRL) with 5% FCS (GIBCO-BR) and 15% horse serum (GIBCO-BRL) added, and 1 mM in sodium pyruvate (GIBCO-BRL), at 37° C. in the presence of 5% CO2. After transfection in 10^6 of these PC12 cells for 2 days with 12 μg of the above-described reporter plasmid and 1 μg of pRC/RSV vector (Invitrogen) using the Lipofectamine 2000 reagent (Invitrogen), the medium was exchanged for fresh medium containing 40 mg/L of geneticin sulfate (GIBCO), and this was cultured continuously. Culturing was continued for approximately 1 month with medium exchange of the cultured medium containing 40 mg/L of geneticin sulfate (GIBCO) every several days, with the result that multiple colonies of the obtained cells were picked up. Among these, one of the colonies that induced luciferase activity in the presence of 40 ng/mL of NGF (Wako Pure Chemicals) was selected and used for the cells to evaluate the activity of the compounds below.
# These cells were set up in 96-well plates with 80% confluence, and the luciferase reporter assay was conducted using the Promega Steady Glo luciferase assay kit. The procedure was carried out overnight (approx. 16 hours) using culture medium containing the compound, and the Steady Glo substrate solution was added to the cells in half-diluted in PBS after removal of all remaining medium containing the compound. After this was allowed to stand for 30 minutes, the respective quantity of light produced was measured with a luminometer (Envision Perkin Elmer).
# The activity of the compounds for evaluation was measured as the potentiation of the activity of 200 ng/mL of NGF. For the experiment control wells, the negative control well had medium containing only a final concentration of 0.1% DMSO, the positive control well had medium containing a saturation concentration of NGF. In addition, a test well was set up containing 0.1% DMSO with 200 ng/mL of NGF added corresponding to a 0 compound concentration. When its luciferase activity was taken as a standard, the relative luciferase activity could be calculated for the test wells to which the compound solution (dissolved in DMSO and prepared to have a final DMSO concentration of 0.1%) had been added in addition to the 200 ng/mL of NGF, to find the potentiation of the activity of 200 ng/mL of NGF due to that compound.
# [4] = Test Example 4, same manner as Test Example 1, relative luciferase activity vs 200 ng/mL NGF alone
# [5] = Test Example 1, relative luciferase activity vs 200 ng/mL NGF alone, overnight (approx. 16 hours)
compound,measurement,setting,value
"Cc1nc2cc(-c3nc4ccccc4o3)ccc2n1C1CCOCC1 [Ex. 12, 5-(benzoxazol-2-yl)-2-methyl-1-(tetrahydropyran-4-yl)benzimidazole methanesulfonate]",infarct volume,[1],reductions in the infarct volumes were confirmed
same,motor nerve conduction velocity (MNCV),[2],recovery of motor nerve conduction velocity was observed
"Cc1nc2cc(-c3nc4ccccc4o3)ccc2n1CCN [Ex. 56, 1-(2-aminoethyl)-5-(benzoxazol-2-yl)-2-methylbenzimidazole hydrochloride]",Activity (potentiation of NGF activity),[3]; [4],++
"Cc1nc2cc(-c3cc4ccccc4o3)ccc2n1C1CCOCC1 [Ex. 19, 5-(benzofuran-2-yl)-2-methyl-1-(tetrahydropyran-4-yl)benzimidazole]",Activity (potentiation of NGF activity),[3]; [5],++
"Cc1nc2cc(-c3nc4ccccc4o3)ccc2n1Cc1ccccc1 [Ex. 17, 5-(benzoxazol-2-yl)-1-benzyl-2-methylbenzimidazole]",Activity (potentiation of NGF activity),[3]; [5],++
"CCOC(=O)Cc1nc2cc(-c3nc4ccccc4o3)ccc2n1C1CCOCC1 [Ex. 86, 5-(benzoxazol-2-yl)-2-(ethoxycarbonylmethyl)-1-(tetrahydropyran-4-yl)benzimidazole]",Activity (potentiation of NGF activity),[3]; [4],++
"CSCCc1nc2cc(-c3nc4ccccc4o3)ccc2n1C1CCOCC1 [Ex. 133, 5-(benzoxazol-2-yl)-2-(2-(methylthio)ethyl)-1-(tetrahydropyran-4-yl)benzimidazole]",Activity (potentiation of NGF activity),[3]; [4],++

# From patent US8829035B2, “Agent for treatment or prevention of diseases associated with activity of neurotrophic factors” (Sumitomo Chemical Company, Limited, priority 2009, dated 2014)
